Measured values from the NIST ThermoML archive (doi:10.1016/j.jct.2017.12.023).
Numbers after ± are expanded uncertainties.

Experiment: refractive index (Na D-line) (dimensionless); xn = mol fraction of the nth substance listed
Conditions: 100 kPa, Liquid, Standard Abbe refractometry

CCOS(=O)(=O)[O-].CCn1cc[n+](C)c1 [1-ethyl-3-methylimidazolium ethyl sulfate] + CCCCCCO
refractive index
Conditions | x1 = 0.1016 | x1 = 0.2016 | x1 = 0.3005 | x1 = 0.3989 | x1 = 0.4975 | x1 = 0.5956 | x1 = 0.6647 | x1 = 0.7947 | x1 = 0.897 | x1 = 1
288.15 K | 1.42855 ± 0.00069 | 1.43639 ± 0.00069 | 1.44364 ± 0.00069 | 1.45017 ± 0.00069 | 1.45653 ± 0.00069 | 1.46223 ± 0.00069 | 1.46592 ± 0.00069 | 1.47274 ± 0.00069 | 1.47731 ± 0.00069 | 1.48155 ± 0.00069
293.15 K | 1.42666 ± 0.00069 | 1.4346 ± 0.00069 | 1.44194 ± 0.00069 | 1.44856 ± 0.00069 | 1.45499 ± 0.00069 | 1.46075 ± 0.00069 | 1.46447 ± 0.00069 | 1.47132 ± 0.00069 | 1.47593 ± 0.00069 | 1.48018 ± 0.00069
298.15 K | 1.42478 ± 0.00069 | 1.43283 ± 0.00069 | 1.44025 ± 0.00069 | 1.44701 ± 0.00069 | 1.45346 ± 0.00069 | 1.45927 ± 0.00069 | 1.46303 ± 0.00069 | 1.4699 ± 0.00069 | 1.47456 ± 0.00069 | 1.47882 ± 0.00069
303.15 K | 1.4229 ± 0.00069 | 1.43107 ± 0.00069 | 1.43858 ± 0.00069 | 1.44545 ± 0.00069 | 1.45193 ± 0.00069 | 1.4578 ± 0.00069 | 1.4616 ± 0.00069 | 1.46848 ± 0.00069 | 1.4732 ± 0.00069 | 1.47746 ± 0.00069
308.15 K | 1.42103 ± 0.00069 | 1.42932 ± 0.00069 | 1.43692 ± 0.00069 | 1.44387 ± 0.00069 | 1.4504 ± 0.00069 | 1.45631 ± 0.00069 | 1.46017 ± 0.00069 | 1.46706 ± 0.00069 | 1.47182 ± 0.00069 | 1.47611 ± 0.00069
313.15 K | 1.41917 ± 0.00069 | 1.42758 ± 0.00069 | 1.43525 ± 0.00069 | 1.44225 ± 0.00069 | 1.44886 ± 0.00069 | 1.45481 ± 0.00069 | 1.45872 ± 0.00069 | 1.46564 ± 0.00069 | 1.47044 ± 0.00069 | 1.47474 ± 0.00069
318.15 K | 1.41729 ± 0.00069 | 1.42582 ± 0.00069 | 1.43358 ± 0.00069 | 1.44065 ± 0.00069 | 1.44735 ± 0.00069 | 1.45333 ± 0.00069 | 1.45726 ± 0.00069 | 1.46423 ± 0.00069 | 1.46907 ± 0.00069 | 1.47341 ± 0.00069
323.15 K | 1.41543 ± 0.00069 | 1.42407 ± 0.00069 | 1.43195 ± 0.00069 | 1.4391 ± 0.00069 | 1.44582 ± 0.00069 | 1.45184 ± 0.00069 | 1.45582 ± 0.00069 | 1.46285 ± 0.00069 | 1.46769 ± 0.00069 | 1.47206 ± 0.00069

CCOS(=O)(=O)[O-].CCn1cc[n+](C)c1 [1-ethyl-3-methylimidazolium ethyl sulfate] + CN1CCCC1=O
refractive index
Conditions | 288.15 K | 293.15 K | 298.15 K | 303.15 K | 308.15 K | 313.15 K | 318.15 K | 323.15 K | 328.15 K | 333.15 K
x1 = 0.1009 | 1.47616 ± 0.00069 | 1.47418 ± 0.00069 | 1.47223 ± 0.00069 | 1.47026 ± 0.00069 | 1.46833 ± 0.00069 | 1.46634 ± 0.00069 | 1.4644 ± 0.00069 | 1.46246 ± 0.00069 | 1.46054 ± 0.00069 | 1.45863 ± 0.00069
x1 = 0.2012 | 1.47863 ± 0.00069 | 1.47679 ± 0.00069 | 1.47496 ± 0.00069 | 1.47313 ± 0.00069 | 1.4713 ± 0.00069 | 1.46948 ± 0.00069 | 1.46772 ± 0.00069 | 1.4659 ± 0.00069 | 1.46409 ± 0.00069 | 1.46232 ± 0.00069
x1 = 0.3021 | 1.47981 ± 0.00069 | 1.47807 ± 0.00069 | 1.47633 ± 0.00069 | 1.4746 ± 0.00069 | 1.47285 ± 0.00069 | 1.47118 ± 0.00069 | 1.4695 ± 0.00069 | 1.46777 ± 0.00069 | 1.46607 ± 0.00069 | 1.46438 ± 0.00069
x1 = 0.4012 | 1.48047 ± 0.00069 | 1.47881 ± 0.00069 | 1.47714 ± 0.00069 | 1.47547 ± 0.00069 | 1.47384 ± 0.00069 | 1.47225 ± 0.00069 | 1.47069 ± 0.00069 | 1.46906 ± 0.00069 | 1.46742 ± 0.00069 | 1.46584 ± 0.00069
x1 = 0.4973 | 1.48086 ± 0.00069 | 1.47925 ± 0.00069 | 1.47766 ± 0.00069 | 1.47608 ± 0.00069 | 1.47453 ± 0.00069 | 1.473 ± 0.00069 | 1.47143 ± 0.00069 | 1.46985 ± 0.00069 | 1.46828 ± 0.00069 | 1.46677 ± 0.00069
x1 = 0.596 | 1.48094 ± 0.00069 | 1.47939 ± 0.00069 | 1.47787 ± 0.00069 | 1.47635 ± 0.00069 | 1.47488 ± 0.00069 | 1.47343 ± 0.00069 | 1.47195 ± 0.00069 | 1.47045 ± 0.00069 | 1.46895 ± 0.00069 | 1.46746 ± 0.00069
x1 = 0.6998 | 1.48099 ± 0.00069 | 1.47951 ± 0.00069 | 1.47804 ± 0.00069 | 1.47659 ± 0.00069 | 1.47517 ± 0.00069 | 1.47375 ± 0.00069 | 1.47229 ± 0.00069 | 1.47084 ± 0.00069 | 1.46939 ± 0.00069 | 1.46794 ± 0.00069
x1 = 0.7961 | 1.48127 ± 0.00069 | 1.47983 ± 0.00069 | 1.47841 ± 0.00069 | 1.47701 ± 0.00069 | 1.47561 ± 0.00069 | 1.47423 ± 0.00069 | 1.47284 ± 0.00069 | 1.47143 ± 0.00069 | 1.47005 ± 0.00069 | 1.46865 ± 0.00069
x1 = 0.8821 | 1.48147 ± 0.00069 | 1.48006 ± 0.00069 | 1.47867 ± 0.00069 | 1.47728 ± 0.00069 | 1.47592 ± 0.00069 | 1.47453 ± 0.00069 | 1.47317 ± 0.00069 | 1.4718 ± 0.00069 | 1.47044 ± 0.00069 | 1.4691 ± 0.00069
x1 = 1 | 1.48155 ± 0.00069 | 1.48018 ± 0.00069 | 1.47882 ± 0.00069 | 1.47746 ± 0.00069 | 1.47611 ± 0.00069 | 1.47474 ± 0.00069 | 1.47341 ± 0.00069 | 1.47206 ± 0.00069 | 1.47075 ± 0.00069 | 1.46943 ± 0.00069
